From US20220193013A1, “Pharmaceutical Composition for Treatment or Prevention of Multiple Inflammatory Disorders” (priority 2020, published 2022)

Legend:
[1] = tested on: leptin-deficient (ob/ob) mice; assay: body weight study in leptin-deficient (ob/ob) mice, 56 days; format: in vivo, mouse
Method: Therefore, ob/ob mice are a predictive in vivo model for these indications. This example provides results of a study of DA plus another compound (CQL) on body weight in leptin-deficient (ob/ob) mice. Vehicle group (N=14) were treated with distilled water by gavage BID, and DA (N=14) at a dose of 50 mg/kg by gavage BID. The study period was for 56 days+2-3 days testing period afterward. Body weight change measured 3X per week, food intake was measure twice per week, metabolic biomarkers (blood glucose, blood insulin, blood HbA1c, HDL, LDL, triglyceride and bile acid) were measured at beginning and end of study. Cytokine analysis was measured at end on Day 56.

[2] = tested on: DSS-induced colitis in mice; assay: dextran sulfate sodium (DSS)-induced colitis in mice; format: in vivo, mouse
Description: This example provides the results of an in vivo study in a dextran sulfate sodium (DSS)-induced colitis in mice model. Inflammatory bowel diseases (IBD), mainly comprising ulcerative colitis and Crohn's Disease, are complex and multifactorial diseases with unknown etiology. To study human IBD mechanistically, a number of murine models of colitis have been developed. These models are tools to decipher underlying mechanisms of IBD pathogenesis as well as to evaluate potential therapeutics. […] Moreover, many existing IBD-approved drugs have been studied in this model to allow a comparison of new potential drug compounds as compared with existing drugs with approved IBD indications. […] mice were divided into 5 groups of 3-10 mice, provided with standard mouse chow diet ad libitum, and housed up to 5 per cage. Dexamethasone 21-phosphate disodium salt (DMS; Alfa Aesar Catalog #J64083-1G, Lot R02F035) (was used as a positive control. Hemoccult kits were obtained from Beckman (Hemoccult SENSA kit). Dextran sodium sulfate (DSS) reagent grade (MPI Catalog #160110, Lot #6046H, MW 36,000-50,000, CAS 9011-18-1) was supplemented in the water of certain groups to induced IBD-like symptoms. On day −3 treatment began prior to DSS delivery. On day 1 all mice were pre-weighed and given fresh 4-5% DSS in water every day for 5 days and water is then given for the remainder of the study to elicit disease. An additional control group was given water (no DSS) for the duration of the study (10 days). Body weight was measured daily, fecal blood status (hemoccult) was measured 3X per week, fecal consistency 3× per week and general health determined daily. Mice were sacrificed on day 10 and serum obtained for cytokine analysis and colon length and weight determined. There were two control groups of water only and DSS without drug treatment. There were two treatment groups at 69.3 mg/kg (n=10) bid and 23.1 mg/kg bid (n=10).

healthy mouse = assay: cytokine profile and routes of administration in healthy mouse; format: in vivo; settings: for VEGF (versus controls): p=0.001
Method: This example provides results of a study to evaluate the effect of denatonium acetate on a healthy mouse as measured by cytokine profile and routes of administration of DA. The study groups were: (1) Vehicle group, N=12, treated with distilled water, gavage, BID; (2) DA oral low dose group, N=12, treated with DA at a dose of 23.1 mg/kg (salt weight), gavage, BID; (3) DA oral high dose group, N=12, treated with DA at a dose of 92.4 mg/kg (salt weight), gavage, BID; (4) DA IV low dose group, N=12, treated with DA at a dose of 1 mg/kg (salt weight), iv bolus, QD; (5) DA IV high dose group, N=12, treated with ARD-101 at a dose of 3 mg/kg (salt weight), iv bolus, QD.

[3] = tested on: DIO mice (C57BL/6NTac, high fat diet); assay: body weight study in diet-induced obese (DIO) mice, 56 days; format: in vivo, mouse
Method: This example provides results of a study of DA plus another compound (CQL) on body weight in diet-induced (DIO) mice. Adult C57BL/6NTac mice were fed with a high fat diet (60%). Vehicle group (N=15) were treated with distilled water by gavage BID, CQL (N=15) were treated at 50 mg/kg by gavage BID, and DA (N=15) at a dose of 92.4 mg/kg by gavage BID. The study period was for 56 days+2-3 days testing period afterward. […] Metabolic biomarkers were measured on days 28 and 56. Cytokine analysis on Days 28 and 56. Serum levels of GLP-1, GLP-2, and CCK at 1 h after dosing on Days 1 and 56, and at 2 h after dosing on Day 7 (dosing (>6 h fasting prior to dosing until after blood collection); and serum level of PPY on Day 56.

[4] = DA 50 mg/kg BID, day 56, no significant difference
[5] = DA 50 mg/kg gavage BID, 56 days
[6] = DA 50 mg/kg gavage BID, compared to vehicle
[7] = high-dose of DA, no significant difference observed
[8] = DA 92.4 mg/kg gavage BID, compared to vehicle
[9] = DA 92.4 mg/kg, CQL 50 mg/kg, gavage BID

## CC(=O)[O-].CC[N+](CC)(CC(=O)Nc1c(C)cccc1C)Cc1ccccc1 [DA, denatonium acetate]
[1]; [4]
  IL-1β level, decreased by, compared to the vehicle group: 19.1%
  IL-6 level, decreased by, compared to the vehicle group: 61.4%
  MCP-1 level, decreased by, compared to the vehicle group: 20.9%
  RANTES level, decreased by, compared to the vehicle group: 1.7%
[1]; DA 50 mg/kg BID, day 56, p=0.026
  MIG (versus controls): significant decreases
[1]; DA 50 mg/kg BID, day 56, p=0.047
  Eotaxin (versus controls): significant decreases
[1]; DA 50 mg/kg gavage BID
  serum HDL levels: no significant effects
[1]; [5]
  body weight: no significant effect
  daily food consumption: no significant effect
  serum HBA1c levels: no significant effect
  serum glucose levels: significantly decreased
  serum insulin levels: no significant effect
[1]; [6]
  serum LDL levels: significantly lowered
  serum bile acids levels: significantly increased
  serum triglyceride levels: significantly lowered
[2]; 69.3 mg/kg DA, BID, vs vehicle
  body weight at day 10: significant effect against DSS-induced body weight loss
[2]; DA 23.1 and 69.3 mg/kg bid
  combined fecal score during the study period: significant main effect
  fecal consistency score during the study period: significant main effect
  fecal occult blood scores during the study period: significant main effect
[2]; DA 23.1 and 69.3 mg/kg bid, P=0.0052
  body weight changes during the study period: significant main effect
[2]; [7]
  colon length at day 10: could counteract DSS-induced decrease
  colon weight at day 10: could counteract DSS-induced decrease
[2]; high-dose of DA, no significant effect observed
  spleen weight at day 10: trend to counteract DSS-induced spleen weight loss
Healthy mouse; either iv DA dose (1 or 3 mg/kg iv bolus QD)
  biomarker (cytokine) effects: no biomarker (cytokine) effects
Healthy mouse; higher dose oral DA 92.4 mg/kg BID
  VEGF (versus controls): significant decreases
Healthy mouse; higher dose oral DA 92.4 mg/kg BID, p=0.003
  IL-9 (versus controls): significant decreases
Healthy mouse; higher dose oral DA 92.4 mg/kg BID, p=0.03
  GM-CSF (versus controls): significant decreases
Healthy mouse; higher dose oral DA 92.4 mg/kg BID, p=0.05
  KC (versus controls): significant decreases
Healthy mouse; iv administration only
  side effects: toxic side effects
Healthy mouse; lower dose oral DA 23.1 mg/kg BID
  VEGF (versus controls): significant decreases
Healthy mouse; lower dose oral DA 23.1 mg/kg BID, p=0.003
  G-CSF (versus controls): significant decreases
Healthy mouse; lower dose oral DA 23.1 mg/kg BID, p=0.005
  MCP-1 (versus controls): significant decreases
Healthy mouse; lower dose oral DA 23.1 mg/kg BID, p=0.015
  MIP-2 (versus controls): significant decreases
Healthy mouse; lower dose oral DA 23.1 mg/kg BID, p=0.03
  IL-13 (versus controls): significant decreases
Healthy mouse; lower dose oral DA 23.1 mg/kg BID, p=0.04
  IL-1α (versus controls): significant decreases
[3]; DA 92.4 mg/kg gavage BID
  serum glucose levels: did not show a significant effect
[3]; [8]
  daily food intake at Day 14: significantly reduced
  serum CCK levels at Day 56: significantly increased
  serum GLP-1 levels at Days 7 and 56: significantly increased
  serum GLP-2 levels at Day 56: significantly increased
  serum PYY levels at Day 56: significantly increased
  serum insulin level at Day 28: significantly reduced
[3]; DA 92.4 mg/kg gavage BID, compared to vehicle and CQL
  body weight gain at day 57: significantly reduced
[3]; DA 92.4 mg/kg gavage BID, compared to vehicle, no significant difference
  serum LDL levels at days 28 and 56: noticeable decrease
[3]; [9]
  serum HbA1c level at Day 28: significantly reduced
  serum HbA1c level at Day 56: considerably increased
[3]; DA 92.4 mg/kg, CQL 50 mg/kg, gavage BID, compared to vehicle
  daily water intake at Day 28: significantly increased
[3]; day 28
  serum Eotaxin, significance (p) of increase: 0.031
  serum G-CSR, significance (p) of increase: 0.063
  serum IL-6, significance (p) of increase: 0.041
  serum IP-10, significance (p) of increase: 0.013
  serum MIG, significance (p) of increase: no sig
[3]; day 56
  serum Eotaxin, significance (p) of increase: no sig
  serum G-CSR, significance (p) of increase: 0.039
  serum IL-6, significance (p) of increase: no sig
  serum IP-10, significance (p) of increase: no sig
  serum MIG, significance (p) of increase: 0.028
